Earlier results, collected in US4335127A, “Piperidinylalkyl quinazoline compounds, composition and method of use” (Janssen Pharmaceutica, N.V., priority 1979, dated 1982).

What was measured:
[1] = system: cyanosis of ears and extremities induced by compound 48/80 in rats; settings: rats treated with compound 48/80; cited from earlier work
[2] = system: lesions in the glandular area of the stomach and distension of the stomach induced by compound 48/80 in rats; settings: rats treated with compound 48/80; cited from earlier work
Note: test concentration or dose not given here.

CN1C[C@H](CNC(=O)OCc2ccccc2)C[C@@H]2c3cccc4c3c(cn4C)C[C@H]21 [metergoline]
prevent completely: prevention of the cyanosis of ears and extremities (known serotonin antagonists) [1] | prevention of the abnormal gastric distension (known serotonin antagonists) [2] | prevention of the lesions in the glandular area of the stomach (known serotonin antagonists) [2]

CC[C@@H](CO)NC(=O)[C@@H]1C=C2c3cccc4c3c(cn4C)C[C@H]2N(C)C1 [methysergide]
prevent completely: prevention of the cyanosis of ears and extremities (known serotonin antagonists) [1] | prevention of the abnormal gastric distension (known serotonin antagonists) [2] | prevention of the lesions in the glandular area of the stomach (known serotonin antagonists) [2]

CN1CCN2c3ccccc3Cc3ccccc3C2C1 (stereo not drawn) [mianserin]
prevent completely: prevention of the cyanosis of ears and extremities (known serotonin antagonists) [1] | prevention of the abnormal gastric distension (known serotonin antagonists) [2] | prevention of the lesions in the glandular area of the stomach (known serotonin antagonists) [2]

NC(=O)C1(N2CCCCC2)CCN(CCCC(=O)c2ccc(F)cc2)CC1 [pipamperone]
prevent completely: prevention of the cyanosis of ears and extremities (known serotonin antagonists) [1] | prevention of the abnormal gastric distension (known serotonin antagonists) [2] | prevention of the lesions in the glandular area of the stomach (known serotonin antagonists) [2]

CN1CCC(=C2c3ccccc3CCc3sccc32)CC1 [pizotifen]
prevent completely: prevention of the cyanosis of ears and extremities (known serotonin antagonists) [1] | prevention of the abnormal gastric distension (known serotonin antagonists) [2] | prevention of the lesions in the glandular area of the stomach (known serotonin antagonists) [2]

O=C(CCCN1CCC2(CC1)C(=O)NCN2c1ccccc1)c1ccc(F)cc1 [spiperone]
prevent completely: prevention of the cyanosis of ears and extremities (known serotonin antagonists) [1] | prevention of the abnormal gastric distension (known serotonin antagonists) [2] | prevention of the lesions in the glandular area of the stomach (known serotonin antagonists) [2]
